In patent US20230038480A1, “SYSTEM FOR PRODUCITON OF HIGH YIELD OF RECOMBINANT PROTEINS” (UNIVERSITY OF MARYLAND, COLLEGE PARK, priority 2021, published 2023):

What was measured:
[1] = test system: E. coli pAHL-GMCSF; test: AHL-induced porin formation and release of dsRedExpressII from E. coli pAHL-GMCSF; assay type: cell-based, Escherichia coli; conditions: about
Experimental: Protein secretion analysis. The target proteins DsRedExpress2 and GMCSF were analyzed. The supernatants of sample aliquots were recovered after centrifugation (6000 g, 2 min) to separate bacteria and subdivided fluorescence analysis (stored chilled) or immunoassaying (stored frozen). The relative fluorescence intensity of samples was measured using a BioTek Synergy platereader to determine DsRedExpress2 levels; additional quantification to correlate fluorescence to protein concentration was performed using a Bioanalyzer 2100 (Agilent Technologies, Santa Clara, Calif.). The His-tagged GMCSF peptide was quantified using a His Tag ELISA Detection Kit (GenScript) according to the provided protocol and 5-10 fold dilutions of frozen samples.

[2] = test system: OxyR / PoxyS promoter
[3] = test system: E. coli
Experimental: To visualize electrode-immobilized bacteria, cells were fluorescently stained using a Live/Dead Baclight Bacterial Viability Kit (Molecular Probes). Syto9 and propidium iodide (PI), were used alone or in combination. In each case, the reagents were diluted between 667 and 1000-fold in PBS, then applied to the cell-covered surfaces and incubated in the dark for 45 min, undisturbed, to stain immobilized cells. The, chips were the rinsed and stored in PBS. […] To quantify viability of cells bound to electrode chips, Syto9 and PI were applied in combination, followed by the fixative solution, with PBS rinsing in between steps. In this case, both green and red fluorescence images were captured. […] The fluorescence images were converted to 8-bit, consistently thresholded, and the cell areas were calculated using ImageJ (NIH). […] After a PBS rinse, cell fluorescence was read on the flow cytometer or imaged by the fluorescence microscope.
To quantify cell growth in the presence of peroxide, E. coli T7Express cells with the pOxyRS-sfGFP-laa and pBla-GBP3-AIDA plasmids were cultured overnight as described above. […] A Bioscreen C machine (Growth Curves USA) was set up at 37° C., high shaking, with 400 μl per well, and recorded OD600 measurements every 15 minutes, using a Growth Rates program to calculate lag and doubling time. […]

Structure (SMILES) | inducer concentration in solution [1] | induction threshold required to achieve saturated protein expression [2] [µM] | peroxide tolerated with negligible effect on cell viability [3] | benign induction range ([3]; in agreement with previous reports) [µM]
CCCCCCCCCC(=O)CC(=O)N[C@H]1CCOC1=O [AHL, N-3-oxo-dodecanoyl-L-Homoserine lactone] | 100-500 nM of AHL | – | – | –
OO [peroxide, hydrogen peroxide] | – | 25 | up to 100 μM | 0 to 100
